Our source for the Ki values is ChEMBL document CHEMBL2413006, “Acyclic phosph(on)ate inhibitors of Plasmodium falciparum hypoxanthine-guanine-xanthine phosphoribosyltransferase” (Bioorg Med Chem, 2013).

SMILES strings stand for the structures. pKi: −log10 of the molar value.

Assay [1] concerns the target T1, Hypoxanthine-guanine phosphoribosyltransferase (Homo sapiens, UniProt P00492).
T1 sequence (P00492 whole entry): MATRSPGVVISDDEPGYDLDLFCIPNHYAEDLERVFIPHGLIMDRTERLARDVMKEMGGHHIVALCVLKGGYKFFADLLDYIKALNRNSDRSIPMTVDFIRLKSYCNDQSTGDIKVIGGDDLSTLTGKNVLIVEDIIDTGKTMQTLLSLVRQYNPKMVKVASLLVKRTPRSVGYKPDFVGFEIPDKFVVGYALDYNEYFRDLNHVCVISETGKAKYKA
The assay can be described thus: Inhibition of human HGPRT using xanthine/PRPP assessed as xanthine/guanine conversion to […]guanosine-5'-monophosphate by spectrophotometry in presence of PRPP.

Assay [2] is described as follows: Inhibition of Plasmodium falciparum HGXPRT assessed as xanthine/guanine conversion to xanthosine-5'-monophosphate/guanosine-5'-monophosphate by spectrophotometry in presence of PRPP.

As for `O=c1[nH]cnc2c(CNCC(CO)CP(=O)(O)O)c[nH]c12` (racemic), the negative-log Ki (pKi) in assay [1] was below 5.00; in assay [2] it was 6.31.
The matching figures for `O=c1[nH]cnc2c(CNC(CO)(CO)COP(=O)(O)O)c[nH]c12`: below 5.00 and 4.82.
The like results for `O=c1[nH]cnc2c(CNCCOP(=O)(O)O)c[nH]c12` were, in that order, below 5.00 and 4.84.
On to `O=c1[nH]cnc2c(CNC(CO)COP(=O)(O)O)c[nH]c12` (racemic), for which the pKi in assay [1] was below 5.00; in assay [2] it was 7.72.
With `O=c1[nH]cnc2c(CNCCCCCP(=O)(O)O)c[nH]c12`, the pKi in assay [1] was below 5.00; in assay [2], 5.07.
In the case of `O=c1[nH]cnc2c(CN[C@@H](CO)CCP(=O)(O)O)c[nH]c12`, the pKi in assay [2] was 7.63.
Take `Nc1nc2c(CN[C@@H](CO)COP(=O)(O)O)c[nH]c2c(=O)[nH]1`: the figures for the pKi in assay [1] and in assay [2] were below 5.00 and 6.19, respectively.
With `O=c1[nH]cnc2c(CCNCCP(=O)(O)O)c[nH]c12`, the pKi in assay [1] was below 5.00; in assay [2], 6.21.
For `O=c1[nH]cnc2c(CN[C@H](CO)CCP(=O)(O)O)c[nH]c12`, the pKi in assay [2] was 9.19.
Take `O=c1[nH]cnc2c(CN[C@H](CO)COP(=O)(O)O)c[nH]c12`: the pKi was below 5.00 in assay [1] and 8.62 in assay [2].
The like results for `O=c1[nH]cnc2c(CNCCCP(=O)(O)O)n[nH]c12` were, in that order, below 5.00 and 7.56.
The matching figures for `Nc1nc2c(CN[C@H](CO)CC(F)(F)P(=O)(O)O)c[nH]c2c(=O)[nH]1`: below 5.00 and 7.00.
The matching figures for `O=c1[nH]cnc2c(CNCP(=O)(O)O)c[nH]c12`: below 5.00 and below 4.70.
Regarding `O=c1[nH]cnc2c(CNCCP(=O)(O)O)c[nH]c12`, the figures for the pKi in assay [1] and in assay [2] were below 5.00 and 5.72, respectively.
The matching figures for `O=c1[nH]cnc2c(CNCC(O)CP(=O)(O)O)c[nH]c12` (racemic): below 5.00 and 8.04.
With `O=c1[nH]cnc2c(CN[C@H](CO)[C@H](O)COP(=O)(O)O)c[nH]c12`, the pKi in assay [1] was below 5.00; in assay [2], 6.01.
The like results for `O=c1[nH]cnc2c(CCNCCCP(=O)(O)O)c[nH]c12` were, in that order, 4.95 and below 4.70.
Take `O=c1[nH]cnc2c(CN[C@H](CO)CC(F)P(=O)(O)O)c[nH]c12` (mixture of isomers): in assay [2], the pKi was 8.92.
In the case of `O=c1[nH]cnc2c(CNCCCP(=O)(O)O)c[nH]c12`, the values for the pKi in assay [1] and in assay [2] were 5.31 and 7.97, respectively.
The matching figures for `O=c1[nH]cnc2c(CNCCCCP(=O)(O)O)c[nH]c12`: below 5.00 and 6.31.
The matching figures for `O=c1[nH]c(Cl)nc2c(CNC(CO)COP(=O)(O)O)c[nH]c12` (racemic): below 5.00 and 5.03.
On to `O=c1[nH]cnc2c(CN[C@H](CO)CC(F)(F)P(=O)(O)O)c[nH]c12`, for which the pKi is below 5.00 in assay [1] and 7.06 in assay [2].
In the case of `Nc1nc2c(CN[C@H](CO)COP(=O)(O)O)c[nH]c2c(=O)[nH]1`, the negative logarithm of the Ki (pKi) in assay [1] was below 5.00; in assay [2], 7.84.

In general, pKi refers to the Ki on a negative log10 scale, so that one unit is a factor of ten.
